Patent US8461085B2, “Bioherbicide from Festuca spp” (Cornell Research Foundation, Inc., priority 2005, dated 2013)
Entries after “also recorded” stand apart in the source; their conditions may differ. Where two headings read alike, the source gives them in different places.

Experiments:
[1] = tested on: fine leaf fescue seedlings cultivar Intrigue; assay: Autotoxicity Petri dish bioassay with fine leaf fescue seeds; assay type: in vivo, Festuca rubra L. Subsp. Commutata Gaud.; conditions: 20 μM to 160 μM
[2] = tested on: lettuce seedlings (Lactuca sativa L.); assay: Soil bioassay, lettuce root growth; assay type: in vivo; conditions: for IC50: Lactuca sativa; for Root Length of Lettuce Seedlings: m-tyrosine at 160 μM
crabgrass seedlings = assay: Soil bioassay, crabgrass root growth; assay type: in vivo, Digitaria sanguinalis L.; conditions: Digitaria sanguinalis, soil media, read-out: concentration reducing root elongation by 50%
Source text: Large crabgrass was also included in the first two experiments because it is a common weed in turf settings. Prior experiments have shown that m-tyrosine is a potent inhibitor of root growth of large crabgrass and lettuce (Bertin et al., “Laboratory Assessment of the Allelopathic Effects of Fine Leaf Fescues,” J. Chem. Ecol. 29:1919-1937 (2003), which is hereby incorporated by reference in its entirety). Soil and MetroMix, as described as previously, were placed in 9-cm petri dishes, and 15 lettuce or crabgrass seeds were sown on the soil surface. Each experiment was replicated three times and was repeated over time.

Bacillus cereus = assay: Antibacterial disc assay; assay type: cell-based
Procedure: (§1) m-Tyrosine was evaluated for its effect on several bacteria (Bacillus cereus, Bacillus subtilis, and Escherichia coli) grown on nutrient agar (Difco) plates (9 cm) and a fungal culture (Metarhizium anisopliae ([…].)) grown on potato dextrose agar (Difco) plates. These plates were spread with either 0.5 mL aliquots of a liquid bacterial culture grown for 18 h in nutrient broth or with 0.5 mL of a fungal spore suspension (1×10^6 spores/mL), and were allowed to dry for approximately 30 minutes. […] A disc moistened with 10 μl of water served as negative control, and positive controls consisted of discs spiked with ampicillin and tetracycline (5 μg). The plates were placed in an incubator at 25° C., and visually checked for zones of inhibition for up to four days. All experiments were performed in triplicate.

Bacillus subtilis = assay: Antibacterial disc assay; assay type: cell-based
Procedure: as §1

Escherichia coli = assay: Antibacterial disc assay; assay type: cell-based
Procedure: as §1

Lettuce = assay: Weed and crop Petri dish bioassay, radicle length; assay type: in vivo, Lactuca sativa L.
Procedure: (§2) m-Tyrosine activity was bioassayed using selected weed and crop species. Growth inhibition as measured by radicle elongation was evaluated in dandelion (Taraxacum officinale Weber in […].), large crabgrass (Digitaria sanguinalis (L.) Scop.), velvetleaf (Abutilon theophrasti Medicus), black medic (Medicago lupulina L.), curly cress (Lepidium sativum L.), bamyardgrass (Echinochloa crus-galli.(L.) Beauv.), lettuce (Lactuca sativa L.), purslane (Portulaca oleracea L.), annual bluegrass (Poa annua L.), birdsfoot trefoil (Lotus corniculatus L.), broadleaf plantain (Plantago major L.), mouseear chickweed (Cerastium vulgatum L.), common chickweed (Stellaria media (L.) Vill.), white clover (Trifolium repens L.), wheat (Triticum aestivum L.), tomato (Lycopersicon esculentum var. esculentum P. Mill.), tobacco (Nicotiana tobacum L.), and sorghum sudangrass hybrid (Sorghum bicolor x Sudanese). Weeds were purchased from HerbiSeeds, England, tomato seeds were purchased from Agway (Ithaca N.Y.), and wheat, sudex and tobacco where donated by Pioneer Seeds (Johnson, Iowa). Seeds were sterilized by a water: ethanol mixture (1:1) for one minute and rinsed three times thoroughly in distilled water. […] At the end of the incubation period, radicle length was measured. […]

Cress = assay: Weed and crop Petri dish bioassay, radicle length; assay type: in vivo, Lepidium sativum L.
Procedure: as §2

Tobacco = assay: Weed and crop Petri dish bioassay, radicle length; assay type: in vivo, Nicotiana tobacum L.
Procedure: (§3) m-Tyrosine activity was bioassayed using selected weed and crop species. Growth inhibition as measured by radicle elongation was evaluated in dandelion (Taraxacum officinale Weber in […].), large crabgrass (Digitaria sanguinalis (L.) Scop.), velvetleaf (Abutilon theophrasti Medicus), black medic (Medicago lupulina L.), curly cress (Lepidium sativum L.), bamyardgrass (Echinochloa crus-galli.(L.) Beauv.), lettuce (Lactuca sativa L.), purslane (Portulaca oleracea L.), annual bluegrass (Poa annua L.), birdsfoot trefoil (Lotus corniculatus L.), broadleaf plantain (Plantago major L.), mouseear chickweed (Cerastium vulgatum L.), common chickweed (Stellaria media (L.) Vill.), white clover (Trifolium repens L.), wheat (Triticum aestivum L.), tomato (Lycopersicon esculentum var. esculentum P. Mill.), tobacco (Nicotiana tobacum L.), and sorghum sudangrass hybrid (Sorghum bicolor x Sudanese). Weeds were purchased from HerbiSeeds, England, tomato seeds were purchased from Agway (Ithaca N.Y.), and wheat, sudex and tobacco where donated by Pioneer Seeds (Johnson, Iowa). Seeds were sterilized by a water: ethanol mixture (1:1) for one minute and rinsed three times thoroughly in distilled water. The simple phytotoxicity bioassay utilized consisted of the evaluation of radicle length of ten sterilized seeds of each weed/crop deposited on a filter paper containing the appropriate m-tyrosine test solution in 4.5 cm Petri dishes. […] A 1000 μL aliquot of the appropriate test solution was added to individual Petri dishes lined with Whatman No. 1 filter paper. Control dishes received 1000 μL of water. After seeds were placed on moistened filter paper, Petri dishes were transferred to a controlled environment with a light regime of 45,33 photon m^-2 s^-1 and maintained at an average temperature of 25° C. for 7 days. At the end of the incubation period, radicle length was measured. Treatments were replicated three times, and the experiment for each plant species tested was repeated three times.

Sudex = assay: Weed and crop Petri dish bioassay, radicle length; assay type: in vivo, Sorghum bicolor x Sudanese
Procedure: as §2

Wheat = assay: Weed and crop Petri dish bioassay, radicle length; assay type: in vivo, Triticum aestivum L.
Procedure: as §2

Mouseear chickweed = assay: Weed and crop Petri dish bioassay, radicle length; assay type: in vivo, Cerastium vulgatum L.
Procedure: as §3

Large Crabgrass = assay: Weed and crop Petri dish bioassay, radicle length; assay type: in vivo, Digitaria sanguinalis (L.) Scop.
Procedure: as §3

Dandelion = assay: Weed and crop Petri dish bioassay, radicle length; assay type: in vivo, Taraxacum officinale Weber in Weggers.
Procedure: as §3

Birdsfoot trefoil = assay: Weed and crop Petri dish bioassay, radicle length; assay type: in vivo, Lotus corniculatus L.
Procedure: as §2

Annual bluegrass = assay: Weed and crop Petri dish bioassay, radicle length; assay type: in vivo, Poa annua L.
Procedure: as §3

Black Medic = assay: Weed and crop Petri dish bioassay, radicle length; assay type: in vivo, Medicago lupulina L.
Procedure: as §2

Common Chickweed = assay: Weed and crop Petri dish bioassay, radicle length; assay type: in vivo, Stellaria media (L.) Vill.
Procedure: as §2

Barnyard grass = assay: Weed and crop Petri dish bioassay, radicle length; assay type: in vivo, Echinochloa crus-galli (L.) Beauv.
Procedure: as §2

[3] = tested on: Arabidopsis thaliana seedlings; assay: Arabidopsis root growth inhibition in growth media; assay type: in vivo; conditions: Arabidopsis thaliana; applied to the growth media; mixture of D and L m-tyrosine; read-out: concentration reducing root length of Arabidopsis by 50%
[4] = Dissolution in aqueous solution; assay type: physicochemical

N[C@@H](Cc1cccc(O)c1)C(=O)O [m-tyrosine, 3-hydroxyphenylalanine]
root elongation of fescue seedlings [1]: not affected; also recorded: No inhibition
IC50 ([2]; in soil, read-out: I50, 50% inhibition of root growth of lettuce): ~30 µM
IC50 ([2]; soil media, lettuce, read-out: concentration reducing root elongation by 50%): 4000 µM
Root Length of Lettuce Seedlings ([2]; ammonium nitrate 0 mM): 2.07 (0.02) cm
Root Length of Lettuce Seedlings ([2]; ammonium nitrate 0.125 mM): 3.56 (0.07) cm
Root Length of Lettuce Seedlings ([2]; ammonium nitrate 0.25 mM): 4.82 (0.1) cm
Root Length of Lettuce Seedlings ([2]; ammonium nitrate 0.5 mM): 4.8 (0.09) cm
Root Length of Lettuce Seedlings ([2]; ammonium nitrate 1.0 mM): 4.8 (0.12) cm
reduction of the inhibition of radicle elongation ([2]; with 1 mM NH4NO3 in comparison to m-tyrosine without soil NH4NO3): approximately 25%
IC50 (crabgrass seedlings): 4000 µM
growth inhibition (Bacillus cereus): not inhibited
growth inhibition (Bacillus subtilis): not inhibited
growth inhibition (Escherichia coli): not inhibited
I10 (Lettuce): 6 µM
IC50 (Lettuce; Lactuca sativa, read-out: I50): 20 µM
I10 (Cress): 15 µM
IC50 (Cress; Lepidium sativum, read-out: I50): 23 µM
I10 (Tobacco): 30 µM
I100 (Tobacco): 160 µM
IC50 (Tobacco; Nicotiana tabacum, read-out: I50): 40 µM
I10 (Sudex): 50 µM
IC50 (Sudex; Sorghum bicolor, read-out: I50): 151 µM
I10 (Wheat): 80 µM
IC50 (Wheat; Triticum aestivum, read-out: I50): 157 µM
I10 (Mouseear chickweed): 6 µM
I100 (Mouseear chickweed): 47 µM
IC50 (Mouseear chickweed; Cerastium, read-out: I50): 9 µM
I10 (Large Crabgrass): 20 µM
I100 (Large Crabgrass): 320 µM
IC50 (Large Crabgrass; Digitaria sanguinalis, read-out: I50): 38 µM
I10 (Dandelion): 10 µM
I100 (Dandelion): 160 µM
IC50 (Dandelion; Taraxacum officinale, read-out: I50): 39 µM
I10 (Birdsfoot trefoil): 20 µM
IC50 (Birdsfoot trefoil; Lotus corniculatus, read-out: I50): 42 µM
I10 (Annual bluegrass): 25 µM
I100 (Annual bluegrass): 320 µM
IC50 (Annual bluegrass; Poa annua, read-out: I50): 47 µM
I10 (Black Medic): 40 µM
IC50 (Black Medic; Medicago lupulina, read-out: I50): 84 µM
I10 (Common Chickweed): 80 µM
I100 (Common Chickweed): 320 µM
I10 (Barnyard grass): 80 µM
IC50 (Barnyard grass; Echinochloa crus-galli, read-out: I50): 257 µM
IC50 [3]: 2 µM
dissolution in an aqueous solution [4]: easily dissolved
